According to patent US10098581B2, “Integrated electrical profiling system for measuring leukocytes activation from whole blood” (Massachusetts Institute of Technology, priority 2014, dated 2018):

Columns and labels:
Assay type in all cases: cell-based
human granulocytes [1] = experiment: IDS mechanism study of neutrophil activation with chemical inhibitors; conditions: 10 MHz; 0.5 μM fMLP, 2 μM PMA; 20 minutes stimulation
Protocol: This experiment focuses on the mechanism study of electrical changes during neutrophil activation. The mechanism study aims to help understand which aspect of neutrophil activation iso-dielectric separation is sensitive to. Different inhibitors were added to reduce the effect of membrane ruffling, reactive oxygen species (ROS) generation, and degranulation before activation to decouple the effect of the three factors. FIG. 19 is a schematic diagram illustrating aspects of activation of a neutrophil in response to a stimulus. In membrane ruffling, volume changes occur with advanced activation. Membrane roughness can increase the membrane capacitance. In Reactive Oxygen Species (ROS) generation, cytoplasm conductivity increases. NADPH oxidase is a major cause of the ROS generation. Degranulation occurs during phagocytosis, and lowers cytoplasmic ionic content. The experiment uses chemical inhibitors to block specific aspects of activation to determine the dominant causes of electrical changes. FIG. 20A is a summary of the procedure. Human granulocytes are first isolated from whole blood with a density gradient method, and then were split into six aliquots for different treatment. CytB, CytB+Jasp, CytB+DPI were added for inhibiting membrane ruffling, membrane ruffling and degranulation, membrane ruffling and ROS generation, respectively. The inhibition treatment lasted for ten minutes. […]

human granulocytes [2] = experiment: Flow cytometry and functional assays of PMA-activated granulocytes; conditions: different doses of PMA
Protocol: 10 ml samples of heparinized human blood were obtained from healthy donors (Blood Research Components, LLC). Two aliquots of 5 ml of blood were set in 3 ml of Mono-Poly Resolving Medium (MP Biosciences) and the samples were spun in a free hanging centrifuge at 400 cfg for 40 min. The resulting layered samples contained a band of granulocytes that were recovered and triple washed with a PBS solution. Finally, the cells were resuspended in a PBS solution (PBS, 1% BSA, 1 u Heparin).
(§1) Human granulocytes were activated with different concentrations of PMA (Phorbol 12-Myristate 13-Acetate, Sigma Aldrich) in a PBS solution with Mg^++ and Ca^++. To activate the cells, a 1:1 solution of suspended cells was mixed with PMA buffer and the resulting suspension was incubated for 20 min at room temperature.
Flow cytometry (FC) was performed with a BD Accuri (Becton Dickinson) flow cytometer with a 488 nm and a 670 nm emitter. Granulocytes were gated based on side and forward scatter and stained with anti-human CD11b-PE, anti-human CD66b-PerCP-CY5.5 and anti-human CD18-FITC (Becton Dickinson) as activation indicators. Mouse samples were stained using anti-mouse CD-18 and anti-mouse Ly6G as an activation marker.
The first goal was to confirm that IDS is able to discern IDP differences in activated and non-activated human granulocytes extracted from freshly collected blood. […]

human granulocytes [3] = experiment: Single-sided iso-dielectric separation (IDS): IDP distributions of PMA-treated vs non-treated granulocytes
Excerpt: In IDS, a heterogeneous population of cells suspended in high conductivity media was loaded into a microfluidic chip. Other inlets containing intermediate and low conductivity media provided a parallel laminar co-flow. This configuration generated a conductivity gradient perpendicular to the main microfluidic channel flow. The channel also had slanted planar electrodes patterned at the bottom (single-sided IDS) or top and bottom (double-sided IDS). An AC electric field applied to the electrodes generated a DEP barrier that guided the cells across the conductivity gradient. Cells escaped the DEP barrier at their isodielectric position (IDP), which is the position where they are at dielectric equilibrium with the surrounding medium. Cells with different effective permittivity (or effective conductivity) escaped at a different IDP resulting in a transverse spatial distribution of cells. A CCD camera near the end of the channel took videos of the cells. Finally, image-processing software detected these cells and computed the resulting IDP distribution (see FIGS. 4a-4d).
To determine the IDP different populations, suspensions (2×10^6 cells/ml) in PBS buffer with a conductivity of 1.2 S/m (PBS, 1% BSA, 1 u Heparin) were used. For the intermediate and low conductivity media, this buffer was mixed with an isotonic sucrose solution to achieve an intermediate conductivity of 0.8 S/m and a low conductivity of 0.4 S/m.
A function generator (Agilent 33220A) and an amplifier applied a 10 Vpp AC field with the same amplitude across all frequencies. A CCD camera at the end of the main channel imaged fluorescently labeled cells flowing across the field of view. An image detection script analyzed the videos to detect cells in each frame and determine the centroid of each cell. The same script generated cell position distributions that correspond to the resulting IDP distribution.
as §1
Using a single-sided IDS platform, the IDP distributions of granulocytes treated with 1 μM PMA and a control population of non-treated granulocytes were examined. A 10 Vpp AC voltage was applied to the electrodes with frequencies ranging from 0.5 MHz to 15 MHz. Cells were loaded at 0.4 μl/min and the intermediate and low conductivity buffer at 0.55 μl/min (1.5 μl/min total). To determine the IDP distributions for each frequency, the IDP distributions of at least 1000 cells were recorded, which required an acquisition of about 1.5 min. […]

neutrophils = experiment: IDP evolution of PMA-treated neutrophils over treatment time; conditions: normalized IDP vs PMA treatment time in minutes (FIG. 16B)
Excerpt: In another embodiment according to the invention, isodielectric position dynamics can be used to assist with diagnostics. In particular, activation of leukocytes can be tracked with DCFH-DA oxidation. FIG. 16A is a graph of respiratory burst (DCFH-DA oxidation), showing DCF median intensity on the vertical axis, versus PMA (Phorbol 12-Myristate 13-Acetate, Sigma Aldrich) treatment time in minutes (horizontal axis), at different concentrations of PMA. FIG. 16B is a graph of iso-dielectric point (IDP) evolution of PMA-treated neutrophils, showing normalized IDP on the vertical axis versus PMA treatment time in minutes on the horizontal axis.

| Compound | IDP shift of stimulated granulocytes (indicating activation) (human granulocytes [1]) | levels of reactive oxygen species (human granulocytes [2]) | CD11b and CD18 expression (human granulocytes [2]; 20 min at room temperature) | IDP distribution of treated granulocytes vs non-treated control (human granulocytes [3]; 1 μM PMA, as frequency increases (0.5-15 MHz), 10 Vpp) | peak ROC area-under-the-curve (AUC), IDP as classification threshold (human granulocytes [3]; 1 μM PMA, frequencies 10-15 MHz) | activation state of neutrophils (IDP profiling) (human granulocytes [3]; 1000 nM PMA) | ROC area under the curve, IDP as classification criteria (human granulocytes [3]; PMA treated vs control, above 5 MHz) | IDP of treated neutrophils versus treatment time (neutrophils) |
| --- | --- | --- | --- | --- | --- | --- | --- | --- |
| CCCCCCCCCCCCCC(=O)O[C@@H]1[C@@H](C)[C@@]2(O)[C@@H](C=C(CO)C[C@]3(O)C(=O)C(C)=C[C@@H]23)[C@@H]2C(C)(C)[C@]12OC(C)=O [PMA, Phorbol 12-Myristate 13-Acetate] | shifted to the left | increased | increased | displaced towards higher IDP | 0.62 | activated | > 0.6 | changes over time |
| CSCC[C@H](NC=O)C(=O)N[C@@H](CC(C)C)C(=O)N[C@@H](Cc1ccccc1)C(=O)O [fMLP, N-Formylmethionyl-leucyl-phenylalanine] | shifted to the left |  |  |  |  |  |  |  |
